Data published in patent US4322416A, “10-Alkynyl steroids” (Merrell Dow Pharmaceuticals Inc., priority 1981, dated 1982).
pIC50, pKi: −log10 of the molar value. “Also recorded” adds a separate entry of the source.

What was measured:
aromatase = details: microsomal enzyme preparations from human placenta; cited from earlier work
[1] = test system: implantation in mated rats; details: cited from earlier work
[2] = test system: estrogen production required for ovulation; details: rats; cited from earlier work
[3] = molecular target: T1, aromatase (microsomal fraction from human placenta) (Homo sapiens, UniProt P11511); experiment: biochemical; format: biochemical
T1 construct: microsomal fraction isolated from human placenta; from tissue; host or cells: human placenta, microsomal fraction
T1 sequence (P11511 1-503): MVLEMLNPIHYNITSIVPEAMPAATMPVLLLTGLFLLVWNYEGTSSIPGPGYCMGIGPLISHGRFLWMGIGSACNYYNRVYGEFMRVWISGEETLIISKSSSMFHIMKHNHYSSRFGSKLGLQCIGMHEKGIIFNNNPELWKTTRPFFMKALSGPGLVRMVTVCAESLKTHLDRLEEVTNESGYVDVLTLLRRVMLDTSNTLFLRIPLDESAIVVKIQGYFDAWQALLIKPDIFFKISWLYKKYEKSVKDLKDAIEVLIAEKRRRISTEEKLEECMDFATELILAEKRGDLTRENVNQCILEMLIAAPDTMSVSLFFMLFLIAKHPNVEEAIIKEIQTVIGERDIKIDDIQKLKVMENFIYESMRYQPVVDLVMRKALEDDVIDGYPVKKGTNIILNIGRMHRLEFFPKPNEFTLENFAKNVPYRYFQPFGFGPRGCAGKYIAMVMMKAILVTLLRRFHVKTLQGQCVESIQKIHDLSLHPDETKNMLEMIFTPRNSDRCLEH
Description: (§1) The aromatase inhibitory action of the compounds of the invention can be determined using a radioenzymatic assay. An aromatase enzyme preparation from the microsomal fraction isolated from human placenta is employed.
Assay buffer contains 100 mM KCl, 10 mM KH2 PO4, 10 mM dithiothreitol and 1 mM EDTA at pH 8.0. […] Aromatase requires NADPH as a cofactor, therefore a generating system is included which uses 0.5 mM NADP^+, 2.5 mM glucose-6-phosphate, and 1.0 unit/ml of glucose-6-phosphate dehydrogenase in assay buffer. The enzyme reaction is initiated by the addition of 700 μl of aromatase preparation, usually 50 μg microsomal protein per ml of assay buffer. These preparations are mixed using a vortex mixer and incubated for 30 minutes at 37° C. with 95% O2 :5% CO2 gas phase in a Dubinoff shaking incubator.
The enzymatic reaction is terminated by the addition of CHCl3. After vortexing 20 seconds, aqueous/organic emulsions are dispersed and phase separation achieved following centrifugation at 600×g for 10 minutes. Duplicate 500 μl samples of the upper aqueous phase of each incubation sample are added to 10×75 mm culture tubes. […] The radioactivity of ^3 H2 O resulting from liberated 1β and 2β tritium atoms during the enzymatic reaction is determined by counting for 10 minutes in a liquid scintillation counter. […]

[4] = molecular target: T2, aromatase (aromatase preparation; microsomal protein) (Homo sapiens, UniProt P11511); experiment: biochemical
T2 sequence (P11511 1-503): T1 sequence (P11511 1-503)
Description: as §1
In this assay, the inhibitor is preincubated with enzyme prior to assaying for enzyme activity in the presence of high substrate levels.
In the time-dependent assay, an amount of the enzyme inhibitor in 100 μl of the assay buffer described above which will provide assay concentrations which are approximately one and ten times the IC50 values are added to 35 ml centrifuge tubes containing 600 μl of the NADPH generating system described above. The preincubation is started by the addition of 700 μl of aromatase preparation, usually 500-800 μg of microsomal protein per ml of assay buffer. These preparations are mixed using a vortex mixer and incubated for 0, 10, 20 or 40 minutes at 25° C. […] Following vortexing, the enzyme incubation is continued for 10 minutes before being terminated by the addition of chloroform. The amount of radioactivity in the aqueous fraction is determined by scintillation procedures. […] Therefore, the present enzyme inhibition is expressed as a percentage: [100 percent minus percent enzyme activity of inhibitor].
Compounds which show time-dependent inhibition are then assayed to establish the inhibition constant, Ki, which is the apparent dissociation constant for the enzyme-inhibitor complex. This determination requires measurements at initial velocities of enzyme reaction. […] The enzyme half-life (t1/2) at these different inhibitor concentrations ([In]) is used to determine the Ki by the linear regression equation of the t1/2 vs. 1/[In]. The Ki is equivalent to the inhibitor concentration when t1/2 is equal to zero.

C[C@]12CCC(=O)C(O)=C1CC[C@@H]1[C@@H]2CC[C@]2(C)C(=O)CC[C@@H]12 [4-hydroxy-androst-4-ene-3,17-dione]
identified as aromatase inhibitor (aromatase): identified as aromatase inhibitors

C[C@]12C=CC(=O)C=C1C=C[C@@H]1[C@@H]2CC[C@]2(C)C(=O)CC[C@@H]12 [Androsta-1,4,6-triene-3,17-dione]
identified as aromatase inhibitor (aromatase): identified as aromatase inhibitors | preventing implantation [1]: effective in preventing implantation in mated rats

CC(=O)OC1=C2CC[C@@H]3[C@H](CC[C@]4(C)C(=O)CC[C@@H]34)[C@@]2(C)CCC1=O [4-acetoxy-androst-4-ene-3,17-dione]
identified as aromatase inhibitor (aromatase): identified as aromatase inhibitors | preventing estrogen production required for ovulation [2]: effective in preventing estrogen production required for ovulation in rats

C#CC[C@]12CCC(=O)C=C1CC[C@@H]1[C@@H]2CC[C@]2(C)C(=O)CC[C@@H]12 [10-(2-propynyl)estr-4-ene-3,17-dione]
pIC50 [3]: 8.38 | enzyme affinity compared with known inhibitors [3]: greater enzyme affinity than other known inhibitors; also recorded: superior to known aromatase inhibitors | pKi [4]: 8.05 | affinity for the enzyme site relative to that of the natural substrate testosterone ([4]; Ki vs. Km of testosterone): five times greater | irreversible binding to / irreversible inhibition of aromatase ([4]; time-dependent inhibition, in words): irreversibly bound to the enzyme
